Assays:
Assay in all cases: relative viability (nuclei count vs DMSO), 5 days (fraction); higher = more cells survive
[1] = compound: CN(C)C[C@@H]1CCn2cc(c3ccccc32)C2=C(C(=O)NC2=O)c2cn(c3ccccc23)CCO1 [Ruboxistaurin] + CS(=O)(=O)CCNCc1ccc(-c2ccc3ncnc(Nc4ccc(OCc5cccc(F)c5)c(Cl)c4)c3c2)o1 [Lapatinib] (partner 2 µM)
How it was run: (§1)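 Relative viability is defined as nuclei in treated wells over nuclei in vehicle wells. Duplicate plates were run and medians reported. Lung cancer cell lines in 1536-well plates were dosed by pin tool one day after seeding, with one drug or with a fixed anchor-drug dose plus five library-drug doses (not always all listed) in √10 steps, and nuclei were counted after 5 days.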

[2] = compound: CN(C)C[C@@H]1CCn2cc(c3ccccc32)C2=C(C(=O)NC2=O)c2cn(c3ccccc23)CCO1 [Ruboxistaurin] + CS(=O)(=O)N1CCN(Cc2cc3nc(-c4cccc5[nH]ncc45)nc(N4CCOCC4)c3s2)CC1 [Pictilisib] (partner 1 µM)
How it was run: as §1

[3] = compound: CN(C)C[C@@H]1CCn2cc(c3ccccc32)C2=C(C(=O)NC2=O)c2cn(c3ccccc23)CCO1 [Ruboxistaurin] + CCNC(=O)c1noc(-c2cc(C(C)C)c(O)cc2O)c1-c1ccc(CN2CCOCC2)cc1 [Luminespib] (partner 0.01 µM)
How it was run: as §1

[4] = compound: CN(C)C[C@@H]1CCn2cc(c3ccccc32)C2=C(C(=O)NC2=O)c2cn(c3ccccc23)CCO1 [Ruboxistaurin] + CC(=O)c1c(C)c2cnc(Nc3ccc(N4CCNCC4)cn3)nc2n(C2CCCC2)c1=O [Palbociclib] (partner 0.5 µM)
How it was run: as §1

[5] = compound: CN(C)C[C@@H]1CCn2cc(c3ccccc32)C2=C(C(=O)NC2=O)c2cn(c3ccccc23)CCO1 [Ruboxistaurin] + CC(=O)Nc1cccc(-n2c(=O)n(C3CC3)c(=O)c3c(Nc4ccc(I)cc4F)n(C)c(=O)c(C)c32)c1 [Trametinib] (partner 0.02 µM)
How it was run: as §1

Row | Cell Line | relative viability ([1]; first compound 0.08 µM) | relative viability ([1]; first compound 0.8 µM) | relative viability ([1]; first compound 2.53 µM) | relative viability ([1]; first compound 8 µM) | relative viability ([2]; first compound 0.08 µM) | relative viability ([2]; first compound 0.8 µM) | relative viability ([2]; first compound 2.53 µM) | relative viability ([2]; first compound 8 µM) | relative viability ([3]; first compound 0.08 µM) | relative viability ([3]; first compound 0.8 µM) | relative viability ([3]; first compound 2.53 µM) | relative viability ([3]; first compound 8 µM) | relative viability ([4]; first compound 0.08 µM) | relative viability ([4]; first compound 0.8 µM) | relative viability ([4]; first compound 2.53 µM) | relative viability ([4]; first compound 8 µM) | relative viability ([5]; first compound 0.08 µM) | relative viability ([5]; first compound 0.8 µM) | relative viability ([5]; first compound 2.53 µM) | relative viability ([5]; first compound 8 µM)
1 | NCI-H358 | 0.479 | 0.408 | 0.421 | 0.406 | 0.326 | 0.297 | 0.3 | 0.235 | 0.498 | 0.32 | 0.242 | 0.386 | 0.14 | 0.128 | 0.129 | 0.131 | 0.159 | 0.116 | 0.125 | 0.112
2 | NCI-H460 | 1.03 | 0.966 | 1.02 | 1.01 | 0.378 | 0.256 | 0.371 | 0.325 | 0.0344 | 0.0361 | 0.0325 | 0.0312 | 0.158 | 0.125 | 0.201 | 0.14 | 0.225 | 0.113 | 0.14 | 0.13
3 | NCI-H520 | 0.904 | 0.772 | 0.867 | 0.864 | 0.324 | 0.264 | 0.236 | 0.208 | 0.227 | 0.182 | 0.227 | 0.225 | 0.236 | 0.222 | 0.246 | 0.185 | 0.831 | 0.627 | 0.808 | 0.617
4 | NCI-H647 | 1.06 | 0.97 | 1.08 | 0.815 | 0.53 | 0.37 | 0.417 | 0.258 | 0.17 | 0.114 | 0.217 | 0.232 | 0.473 | 0.395 | 0.432 | 0.415 | 0.568 | 0.374 | 0.473 | 0.431
5 | NCI-H650 | 1.22 | 0.764 | 1.38 | 0.491 | 1.15 | 0.831 | 0.848 | 0.808 | 0.841 | 0.7 | 0.875 | 0.938 | 0.339 | 0.337 | 0.377 | 0.383 | 1.1 | 0.914 | 1.01 | 0.952
6 | NCI-H661 | 0.593 | 0.451 | 0.639 | 0.623 | 0.463 | 0.499 | 0.493 | 0.422 | 0.883 | 0.817 | 0.942 | 1.01 | 0.424 | 0.416 | 0.437 | 0.46 | 0.667 | 0.528 | 0.681 | 0.703
7 | NCI-H727 | 1.09 | 0.552 | 0.804 | 0.602 | 0.563 | 0.244 | 0.433 | 0.284 | 0.345 |  | 0.355 | 0.323 | 0.596 | 0.688 | 0.745 | 0.707 | 0.361 | 0.395 | 0.384 | 0.367
8 | NCI-H838 | 1.07 | 0.813 | 0.929 | 0.875 | 0.468 | 0.376 | 0.371 | 0.383 | 0.292 | 0.239 | 0.425 | 0.382 | 0.234 | 0.19 | 0.215 | 0.213 | 0.58 | 0.461 | 0.513 | 0.504
9 | NCI-H1355 | 1.06 | 0.916 | 0.933 | 0.814 | 0.473 | 0.364 | 0.309 | 0.276 | 0.734 | 0.592 | 0.788 | 0.534 | 0.399 | 0.338 | 0.412 | 0.418 | 0.462 | 0.361 | 0.394 | 0.357
10 | NCI-H1395 | 1.01 | 1.06 | 1.2 | 0.879 | 0.635 | 0.611 | 0.713 | 0.518 | 0.918 | 0.66 | 0.769 | 0.488 | 0.657 | 0.579 | 0.63 | 0.553 | 1.15 | 0.846 | 0.988 | 1.09
11 | NCI-H1437 | 0.934 | 0.675 | 0.751 | 0.819 | 0.488 | 0.388 | 0.383 | 0.305 | 1.17 | 1.1 | 1.17 | 1.22 | 0.337 | 0.302 | 0.303 | 0.308 | 0.517 | 0.526 | 0.577 | 0.477
12 | NCI-H1650 | 1.03 | 0.694 | 1.09 | 0.829 | 0.679 | 0.402 | 0.646 | 0.359 | 0.185 | 0.207 | 0.189 | 0.183 | 0.416 | 0.324 | 0.455 | 0.372 | 0.698 | 0.447 | 0.613 | 0.571
13 | NCI-H1651 | 0.828 | 0.697 | 0.843 | 0.717 | 0.63 | 0.531 | 0.502 | 0.624 | 1.06 | 0.835 | 0.899 | 0.901 | 0.528 | 0.482 | 0.531 | 0.494 | 0.891 | 0.736 | 0.805 | 0.858
14 | NCI-H1666 | 0.596 | 0.529 | 0.783 | 0.659 | 0.413 | 0.355 | 0.474 | 0.421 | 1.03 | 0.964 | 1.03 | 1.08 | 0.659 | 0.608 | 0.606 | 0.726 | 0.903 | 0.795 | 0.865 | 0.877
15 | NCI-H1734 | 1.1 | 0.984 | 1.11 | 0.445 | 0.471 | 0.398 | 0.46 | 0.352 | 0.174 | 0.161 | 0.179 | 0.178 | 0.354 | 0.328 | 0.367 | 0.312 | 0.724 | 0.613 | 0.691 | 0.58

Reference: the supplement of paper PMC10307832
